Starred links: 1 amine or outer side, 2 acyl side, 3 side chain; linkers in the order of their positions; H or OH if unused. Positions of bridges follow the written chain, without caps; N, C: chain ends. Non-standard residues stand in square brackets, D forms with d. Residues, ends and D or L forms follow the SMILES beside them. Groups on a side chain read outwards from the residue. No end group written: not given here. *: point of attachment. Meglumine = CN(C[C@H](O)[C@@H](O)[C@H](O)[C@H](O)CO)*; Trp(7-aza) = N[C@@H](Cc1c[nH]c2ncccc12)C(=O)O; Piperazinyl(4-CH2COOH) = O=C(O)CN1CCN(*)CC1; 1Nal = N[C@@H](Cc1cccc2ccccc12)C(=O)O; Gly(NCH2CH2Ph) = O=C(O)CNCCc1ccccc1; 4Pal = N[C@@H](Cc1ccncc1)C(=O)O; CO = O=C([*:1])[*:2]

As a reminder, the inhibition is the relative decrease from the control value, in per cent.

One assay addresses T1, recombinant human TGF-β1 (Homo sapiens, UniProt P01137).
T1 construct: purchased R&D systems
The assay is described as follows: SBE reporter assay in SBE reporter-HEK293 cells, TGF-β1 stimulation. The note with it: TGF-β1 0.13 nM, 18 hours; for inhibition at 75 pM: peptide 0.075 nM; for inhibition at 0.00075 µM: peptide 0.75 nM; for inhibition at 0.0075 µM: peptide 7.5 nM; for inhibition at 0.075 µM: peptide 75.0 nM; for inhibition at 62 pM: peptide 0.062 nM; for inhibition at 0.000185 µM: peptide 0.185 nM; for inhibition at 0.00056 µM: peptide 0.56 nM; for inhibition at 0.0017 µM: peptide 1.7 nM; for inhibition at 0.005 µM: peptide 5.0 nM; for inhibition at 0.015 µM: peptide 15.0 nM. It is filed as cell-based. The source says:
The inhibitory activity of the peptide can be calculated without limitation while the maximum signal induced by TGF-β is set to 0% inhibition and no stimulation is set to 100% inhibition. When the peptide is used at an appropriate concentration, for example, at the optimal concentration, the inhibitory activity is not limited but the inhibition is 5% or more, 10% or more, 20% or more, 30% or more, 40% or more, 50% or more, 60% or more, 70% or more, 80% or more, or 90% or more.
In this Example, the TGF-β1 inhibitory activity of the peptide of the present invention consisting of the amino acid sequence set forth in SEQ ID NOs: 2-33 synthesized in Examples 1 to 5 and 7 was evaluated by an SBE reporter assay using the SBE reporter-HEK293 cell system (BP Bioscience) as follows.
SBE reporter-HEK293 cells were cultured in E-MEM (Wako) containing 10% FBS (Sigma). The cells were detached using Accutase (Innovative Cell Technologies), suspended in E-MEM containing 0.5% FBS, seeded onto a 96-well plate(s) at a concentration of 45,000 cells per well, and cultured overnight. The next day, the peptide was added and allowed to stand for 20 min, and recombinant human TGF-β1 (R&D systems) or recombinant human TGF-β2 (R&D systems) was then added at 0.13 nM and cultured for 18 hours.
Thereafter, luciferase assay ONE-Glo reagent was added to each well and the plate was shaken for 5 min. A SpectraMax Paradigm multimode microplate reader (Molecular Devices) was then used for signal detection. The obtained signals were analyzed by GraphPad Prism. The inhibitory activity of the peptide was calculated while the maximum signal induced by TGF-β was set to 0% inhibition and no stimulation was set to 100% inhibition.
(Reporter assays use an easily measured gene product as a stand-in for the process of interest.)

Assay [1] concerns the target recombinant human TGF-β1 (R&D systems) (human, UniProt P01137 279-390). The assay is described as follows: cell-based or functional assay.

Sequence of recombinant human TGF-β1 (R&D systems) (P01137 279-390 limits assumed): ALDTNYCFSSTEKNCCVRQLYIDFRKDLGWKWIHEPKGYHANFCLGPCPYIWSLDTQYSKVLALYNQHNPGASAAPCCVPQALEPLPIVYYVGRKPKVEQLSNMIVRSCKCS
T1 sequence (P01137 279-390 limits assumed): as above

As to `CC(C)[C@@H]1NC(=O)CN(CCc2ccccc2)C(=O)[C@H](CC(=O)O)NC(=O)[C@H](CC(=O)O)NC(=O)[C@H](Cc2ccncc2)NC(=O)[C@H](C(C)C)NC(=O)[C@H](CC(N)=O)NC(=O)[C@H](C(C)C)NC(=O)[C@H](C(C)C)NC(=O)[C@H](Cc2cccc3ccccc23)NC(=O)[C@H](Cc2ccccc2)NC(=O)CSC[C@@H](C(=O)NCC(N)=O)NC(=O)[C@H](CCCCNC(=O)N(C)C[C@H](O)[C@@H](O)[C@H](O)[C@H](O)CO)NC(=O)[C@H](Cc2c[nH]cn2)NC(=O)[C@H](Cc2ccc(O)cc2)NC(=O)[C@H](Cc2cccc3ccccc23)NC1=O` [TGFb1_016] ({CH2CO}-F[1Nal]VVNV[4Pal]DD[Gly(NCH2CH2Ph)]V[1Nal]YHK([CO-Meglumine])CG-NH2; thioether N-16), at recombinant human TGF-β1, the inhibition at 75 pM came out at 6.1%, the inhibition at 0.00075 µM was 61%, the inhibition at 0.0075 µM turned out to be 97.6% and the inhibition at 0.075 µM is 100%.
As to `CC(C)[C@@H]1NC(=O)CN(CCc2ccccc2)C(=O)[C@H](CCCCNC(=O)N2CCN(CC(=O)O)CC2)NC(=O)[C@H](CC(=O)O)NC(=O)[C@H](Cc2ccncc2)NC(=O)[C@H](C(C)C)NC(=O)[C@H](CC(N)=O)NC(=O)[C@H](C(C)C)NC(=O)[C@H](C(C)C)NC(=O)[C@H](Cc2c[nH]c3ncccc23)NC(=O)[C@H](Cc2ccccc2)NC(=O)CSC[C@@H](C(=O)NCC(N)=O)NC(=O)[C@H](C(C)C)NC(=O)[C@H](Cc2c[nH]cn2)NC(=O)[C@H](Cc2ccc(O)cc2)NC(=O)[C@H](Cc2cccc3ccccc23)NC1=O` [TGFb1_017] ({CH2CO}-F[Trp(7-aza)]VVNV[4Pal]DK([CO-Piperazinyl(4-CH2COOH)])[Gly(NCH2CH2Ph)]V[1Nal]YHVCG-NH2; thioether N-16), at recombinant human TGF-β1, the inhibition at 75 pM is 21.7%, the inhibition at 0.00075 µM was 60.2%, the inhibition at 0.0075 µM was found to be 97.2% and the inhibition at 0.075 µM came to 100%.
For `CC(C)[C@@H]1NC(=O)CN(CCc2ccccc2)C(=O)[C@H](CCCCNC(=O)N(C)C[C@H](O)[C@@H](O)[C@H](O)[C@H](O)CO)NC(=O)[C@H](CC(=O)O)NC(=O)[C@H](Cc2ccncc2)NC(=O)[C@H](C(C)C)NC(=O)[C@H](CC(N)=O)NC(=O)[C@H](C(C)C)NC(=O)[C@H](C(C)C)NC(=O)[C@H](Cc2c[nH]c3ncccc23)NC(=O)[C@H](Cc2ccccc2)NC(=O)CSC[C@@H](C(=O)NCC(N)=O)NC(=O)[C@H](C(C)C)NC(=O)[C@H](Cc2c[nH]cn2)NC(=O)[C@H](Cc2ccc(O)cc2)NC(=O)[C@H](Cc2cccc3ccccc23)NC1=O` [TGFb1_018] ({CH2CO}-F[Trp(7-aza)]VVNV[4Pal]DK([CO-Meglumine])[Gly(NCH2CH2Ph)]V[1Nal]YHVCG-NH2; thioether N-16), at recombinant human TGF-β1, the inhibition at 75 pM is 22.2%, the inhibition at 0.00075 µM was 61%, the inhibition at 0.0075 µM was 97.6% and the inhibition at 0.075 µM was 99.9%.
Consider `CC(C)[C@@H]1NC(=O)CN(CCc2ccccc2)C(=O)[C@H](CCC(=O)O)NC(=O)[C@H](CC(=O)O)NC(=O)[C@H](Cc2ccncc2)NC(=O)[C@H](C(C)C)NC(=O)[C@H](CC(N)=O)NC(=O)[C@H](C(C)C)NC(=O)[C@H](C(C)C)NC(=O)[C@H](Cc2cccc3ccccc23)NC(=O)[C@H](Cc2ccccc2)NC(=O)CSC[C@@H](C(=O)NCC(N)=O)NC(=O)[C@H](CCCCNC(=O)N2CCN(CC(=O)O)CC2)NC(=O)[C@H](Cc2c[nH]cn2)NC(=O)[C@H](Cc2ccc(O)cc2)NC(=O)[C@H](Cc2cccc3ccccc23)NC1=O` [TGFb1_021] ({CH2CO}-F[1Nal]VVNV[4Pal]DE[Gly(NCH2CH2Ph)]V[1Nal]YHK([CO-Piperazinyl(4-CH2COOH)])CG-NH2; thioether N-16), for which, on recombinant human TGF-β1, the inhibition at 62 pM is 10.2%, the inhibition at 0.000185 µM was determined as 26.9%, the inhibition at 0.00056 µM came to 58.9% and the inhibition at 0.0017 µM came to 87.8%. Besides, on recombinant human TGF-β1, the inhibition at 0.005 µM stood at 97.1% and the inhibition at 0.015 µM was found to be 98.8%.
On to `CC(C)[C@@H]1NC(=O)CN(CCc2ccccc2)C(=O)[C@H](CC(=O)O)NC(=O)[C@H](CC(=O)O)NC(=O)[C@H](Cc2ccncc2)NC(=O)[C@H](C(C)C)NC(=O)[C@H](CC(N)=O)NC(=O)[C@H](C(C)C)NC(=O)[C@H](C(C)C)NC(=O)[C@H](Cc2cccc3ccccc23)NC(=O)[C@H](Cc2ccccc2)NC(=O)CSC[C@@H](C(=O)NCC(N)=O)NC(=O)[C@H](CCC(=O)O)NC(=O)[C@H](Cc2c[nH]cn2)NC(=O)[C@H](Cc2ccc(O)cc2)NC(=O)[C@H](Cc2cccc3ccccc23)NC1=O` [TGFb1_027] ({CH2CO}-F[1Nal]VVNV[4Pal]DD[Gly(NCH2CH2Ph)]V[1Nal]YHECG-NH2; thioether N-16), for which, on recombinant human TGF-β1, the inhibition at 62 pM turned out to be 2.53%, the inhibition at 0.000185 µM is 9.14%, the inhibition at 0.00056 µM is 28.4% and the inhibition at 0.0017 µM is 59.4%. Besides, at recombinant human TGF-β1, the inhibition at 0.005 µM is 84.9% and the inhibition at 0.015 µM was 95.5%.
As to `CC(C)[C@@H]1NC(=O)CN(CCc2ccccc2)C(=O)[C@H](CC(=O)O)NC(=O)[C@H](CC(=O)O)NC(=O)[C@H](Cc2ccncc2)NC(=O)[C@H](C(C)C)NC(=O)[C@H](CC(N)=O)NC(=O)[C@H](CCCCNC(=O)N(C)C[C@H](O)[C@@H](O)[C@H](O)[C@H](O)CO)NC(=O)[C@H](C(C)C)NC(=O)[C@H](Cc2cccc3ccccc23)NC(=O)[C@H](Cc2ccccc2)NC(=O)CSC[C@@H](C(=O)NCC(N)=O)NC(=O)[C@H](CCC(=O)O)NC(=O)[C@H](Cc2c[nH]cn2)NC(=O)[C@H](Cc2ccc(O)cc2)NC(=O)[C@H](Cc2cccc3ccccc23)NC1=O` [TGFb1_028] ({CH2CO}-F[1Nal]VK([CO-Meglumine])NV[4Pal]DD[Gly(NCH2CH2Ph)]V[1Nal]YHECG-NH2; thioether N-16), on recombinant human TGF-β1, the inhibition at 62 pM amounted to 0.94%, the inhibition at 0.000185 µM was determined as 6.17%, the inhibition at 0.00056 µM came out at 20.4% and the inhibition at 0.0017 µM amounted to 47.6%. In addition, at recombinant human TGF-β1, the inhibition at 0.005 µM is 73.9% and the inhibition at 0.015 µM amounted to 91.7%.
As for `CC(C)[C@@H]1NC(=O)CN(CCc2ccccc2)C(=O)[C@H](CCC(=O)O)NC(=O)[C@H](CC(=O)O)NC(=O)[C@H](Cc2ccncc2)NC(=O)[C@H](C(C)C)NC(=O)[C@H](CC(N)=O)NC(=O)[C@H](CCCCNC(=O)N(C)C[C@H](O)[C@@H](O)[C@H](O)[C@H](O)CO)NC(=O)[C@H](C(C)C)NC(=O)[C@H](Cc2cccc3ccccc23)NC(=O)[C@H](Cc2ccccc2)NC(=O)CSC[C@@H](C(=O)NCC(N)=O)NC(=O)[C@H](CCC(=O)O)NC(=O)[C@H](Cc2c[nH]cn2)NC(=O)[C@H](Cc2ccc(O)cc2)NC(=O)[C@H](Cc2cccc3ccccc23)NC1=O` [TGFb1_029] ({CH2CO}-F[1Nal]VK([CO-Meglumine])NV[4Pal]DE[Gly(NCH2CH2Ph)]V[1Nal]YHECG-NH2; thioether N-16), on recombinant human TGF-β1, the inhibition at 62 pM came to 12%, the inhibition at 0.000185 µM stood at 16.9%, the inhibition at 0.00056 µM stood at 32.4% and the inhibition at 0.0017 µM came out at 63.7%. On recombinant human TGF-β1, the inhibition at 0.005 µM stood at 85.8% and the inhibition at 0.015 µM was 96.8%.

B1: TGFb1_006 (peptide)
peptide: {CH2CO}-F[1Nal]VVNV[4Pal]DD[Gly(NCH2CH2Ph)]V[1Nal]YHVCG
modifications: thioether N-16; not fully specified (C-terminus)
notes: cyclic peptide; C-terminal G is a linker
For the molecule B1, in assay [1], the “SBE reporter % inhibition, peptide 0.075 nM” value is 2.8%; the “SBE reporter % inhibition, peptide 0.75 nM” value is 69.3%; the “SBE reporter % inhibition, peptide 7.5 nM” value came out at 97.1%; the “SBE reporter % inhibition, peptide 75.0 nM” value stood at 99.7%.

(Values after patent US20250034212A1, “PEPTIDE” (PEPTIDREAM INC., priority 2021, published 2025).)
